Test results: patent publication US20180193327A1, “PROPHYLACTIC LEUKOTRIENE INHIBITOR AND IMPLANT DISPLACEMENT THERAPY FOR PREVENTION AND TREATMENT OF CAPSULAR CONTRACTURE IN SILICONE BREAST AUGMENTATION” (priority 2017, published 2018)
Where “and” joins values, the source holds several entries; their conditions need not be identical. Equal values may be shown once.

Legend:
[1] = Liver function studies (transaminases) during Accolate therapy after primary augmentation; assay type: in vivo, patients (women)
Method: At thirty days postoperatively, blood testing was performed, with a measurement of transaminase levels and liver function studies. The softness of the breast implants as well as the implant movement and position was evaluated to determine if capsular contracture was present. Patients with normal liver function studies were provided two more months of Accolate therapy. At the completion of this, two additional months of treatment, the breasts were evaluated for the presence of capsular contracture. Patients without clinical capsular contracture, Baker I and II, were completed with therapy. Patients with clinical capsular contracture, either Baker III or IV, underwent repeat liver function studies. If transaminase levels were within normal limits, an additional three months of Accolate therapy was prescribed with the continuation of breast implant displacement therapy.
If liver function studies were abnormal and transaminase levels were elevated at any time in the treatment period, Accolate therapy was immediately discontinued and repeat liver function studies were performed every 14 days until normal levels were reached. If applicable, breast implant displacement therapy was continued and patients were offered 800 units-1000 units of Vitamin E daily in lieu of Accolate. Patients undergoing treatment with Accolate were monitored with a blood testing program. Following thirty days of treatment with Accolate, patients underwent liver function studies with evaluation of transaminase enzymes, including SGOT and SGPT, or ALT and AST. Normal ranges of enzyme levels were required to continue Accolate therapy.
All patients receiving Accolate therapy underwent liver function studies four weeks following the initiation of Accolate therapy. […] Follow-up liver function studies were performed at two week intervals, until transaminases normalized. […] Liver function studies were repeated after three months of Accolate therapy for patients choosing to continue Accolate for a six month course.

[2] = FDA post-approval studies for the treatment of asthma; cited from earlier work

Structure (SMILES): COc1cc(C(=O)NS(=O)(=O)c2ccccc2C)ccc1Cc1cn(C)c2ccc(NC(=O)OC3CCCC3)cc12 [Accolate, Zafirlukast]
- Percentage of patients with (mild) elevation of transaminases ([1]; at 30 days of treatment, 20 mg bid, medication discontinued): 0.58%
- Number of patients with (mild) elevation of transaminases ([1]; at 30 days of treatment, out of 520 treated): Three and 3/520
- Time for transaminases to return to normal after discontinuing the medication ([1]; two patients within two weeks, one patient within four weeks): four
- Potential significant (uncommon) risks reported [2]: chemical hepatitis, liver failure, and even death
